Test results as given in US8552068B2, “Compositions and methods” (priority 2004, dated 2013).
“Also recorded” adds a separate entry of the source.

Columns and labels:
[1] = tested on: Artificially-ventilated pentobarbital anesthetised rabbits; test: Intravenous infusion of carrier solutions saturated with pure nitric oxide gas; exhaled NO and MAP; assay type: in vivo, rabbit
Description: Male white New Zealand rabbits were subjected to different doses of an intravenous infusion of NO-substituted solutions at different doses. Several physiological parameters were measured during the experiments, including NO concentration in mixed exhaled gas (FENO).
(§1) Different carrier media solutions (table 1) were dissolved and diluted with saline or water to obtain different concentration of the solutions. The solution was then placed in a gas-tight chamber and deoxygenated by means of helium bubbling for 10 min. The glass chamber was then gassed with pure nitric oxide gas for 3-4 min.
Data are given as mean±SEM.

[2] = Deoxygenation and exposure of carrier to NO gas (suitability for infusion); assay type: physicochemical
Description: as §1

[3] = tested on: pulmonary embolism / venous gas embolism in NO-synthesis inhibited animals; test: Treatment of embolism with NO in lipid emulsion in animals with inhibited NO production; assay type: in vivo; conditions: animal with inhibited NO production
From the text: It is contemplated that the NO infusion exerts vasodilatory effects in the pulmonary circulation, and/or mild vasodilatory effect on systemic circulation, and inhibits thrombocyte aggregation, or a combination of these effects.
The beneficial effects may be induction of vasodilation in the pulmonary vasculature, inhibition of aggregation of thrombocytes and/or minor vasodilation in the whole or parts of the systemic circulation, for example in the coronary circulation.

[4] = tested on: artificially ventilated pentobarbital anaesthetized rabbits; test: Effects of L-NAME infusion in anaesthetised rabbit; conditions: L-NAME 30 mg kg^−1 throughout 10 min
From the text: The experiments were approved by the local animal ethics committee. […] The animals were placed in supine position and tracheotomised just below the cricoid cartilage to allow mechanical ventilation using a tracheal cannula with an outer diameter of 5 mm. […] The ventilator was supplied with NO-free air using a charcoal filter (110×11 cm). […] The minute ventilation was 0.64-0.96 l min^−1. To the other side arm a pressure transducer (Statham, Hato Rey, Puerto Rico) was connected thus monitoring the insufflation pressure. The gas from the ventilator outlet was led through a switching valve to either of two beakers creating a positive end-expiratory pressure (PEEP) of 1-2 CmH2O or 4-5 cmhbO. During the experiment the gas flow was altered between the lower PEEP (9 min) and the higher PEEP (1 min) with an interval of totally 10 min. […] A heparinized catheter was inserted in the left common carotid artery for blood pressure and heart rate recordings (pressure transducer, Statham, Hato Rey, Puerto Rico), and arterial blood sampling. Another catheter was inserted in the right jugular vein for drug and muscle emboli administration. […] The muscles from the anterior compartment of the right lower hind limb were resected and placed in normal saline. Hereafter the animals were allowed a 30-60 min intervention-free period to obtain stable circulatory conditions and stable concentrations of expired NO.
NO concentration, in mixed exhaled gas, was continuously measured by means of a chemiluminescence based system (Niox, Aerocrine AB, Solna, Sweden) sampling at 100 ml min^−1 at the end of a mixing chamber connected to the ventilator exhaust. The full mixing of expired air thus measured on was intermittently checked by monitoring CO2 concentration in the same chamber. In a few experiments, gas for NO measurement was sampled from the trachea at the same point as for tidal CO2 measurements, thus yielding breath by breath NO concentrations. Calibration was done using certified NO standard gas in nitrogen (AGA Specialgas, Lidingδ, Sweden).
Blood samples were collected and analyzed for blood gases and acid-base status (ABL 300, Radiometer A/S, Copenhagen, Denmark) before L-NAME administration (group 2, time=−40 min) and shortly before muscle emboli challenge (group 1 and 2, time=−5 min). […] Arterial blood samples were collected and analysed at 10 min, 20 min, 40 min and 60 min after embolization. NO concentration in exhaled gas, end-tidal CO2, heart rate, mean arterial pressure and insufflation pressure was continuously monitored on a Grass Polygraph (Grass Instruments Co, Quincy, Mass., USA) during the experiments.

Compound	effect as NO carrier / NO delivering capacity (words) ([1]; compared to the saline control)	Exhaled NO, Change (%) ([1]; infusion versus pre-infusion)	Exhaled NO, Change (absolute value) ([1]; infusion versus pre-infusion) [ppb]	MAP, Change (%) ([1]; infusion versus pre-infusion)	MAP, Change (absolute value) ([1]; infusion versus pre-infusion) [cmH2O]	also measured
COC1O[C@H](CO)[C@@H](O)[C@H]1O (stereo partly drawn) [1-O-methyI-Ribose, 1-O-methyl-ribose]	noticeable effect	1284	155.9	−50	−50.0	
Fucoidan [Fucoidan (10%)]	noticeable effect	23	4.7	−52	−55.9	
N[C@@H](CS)C(=O)O [L-cysteine]						behaviour when deoxygenated and exposed to NO gas [2]: a copious precipitate, unsuitable for infusion, was formed
CCCO [Carrier 1-Propanol, 1-Propanol]		733		−11		
OC[C@@H](O)[C@@H](O)[C@H](O)[C@H](O)CO [Mannitol (20%), Mannitol]	noticeable effect; also recorded: positive results	55.6	4.7			
Polyethylene glycol	noticeable effect	61	11.2	−19	−17.6	
O=C[C@H](O)[C@H](O)[C@H](O)CO [Ribose (50%), Ribose]	noticeable effect	77 ± 43	8.2 ± 3.0			
N=C(N)NCCC[C@H](N)C(=O)O [Arginine]						Exhaled NO, Change (%) ([1]; rabbit, in vivo): 3%; Exhaled NO, Change (absolute value) ([1]; rabbit, in vivo): 0.6 ppb
CC(C)O [Carrier 2-PropanoI, 2-propanol]	noticeable effect; also recorded: marked effect	1400	180	−15	−14.7	
CC(O)C(=O)O (stereo not drawn) [Lactate]		0	0	−2	−1.5	
CC(=O)N[C@@H](CS)C(=O)O [N-Acetylcysteine]	noticeable effect	19	4.1			
NCC(=O)O [Glycine]		−4	−0.6			
O=CC[C@H](O)[C@H](O)CO [2-deoxy-Ribose]	noticeable effect	269	32.7			
NCC(O)CO (stereo not drawn) [3-Amino-1,2-propanediol]		0	0			
O=C(O)[C@H](O)[C@@H](O)[C@H](O[C@@H]1O[C@H](CO)[C@H](O)[C@H](O)[C@H]1O)[C@H](O)CO [Lactobionic acid]	noticeable effect	42	8.3	−35	−32.4	
N[C@H]1C(O)O[C@H](CO)[C@@H](O)[C@@H]1O (stereo partly drawn) [Glucosamine]		−9	−0.9			
Heparin [Heparin (15000 IU/ml, 10%)]		−5	−0.6	−12	−8.8	

Compound	effect as NO carrier / NO delivering capacity (words) ([1]; compared to the saline control)	Exhaled NO, Change (%) ([1]; infusion versus pre-infusion)	Exhaled NO, Change (absolute value) ([1]; infusion versus pre-infusion) [ppb]	MAP, Change (%) ([1]; infusion versus pre-infusion)	MAP, Change (absolute value) ([1]; infusion versus pre-infusion) [cmH2O]	also measured
O=C(CO)[C@@H](O)[C@H](O)[C@H](O)CO [Fructose (60%), Fructose]	noticeable effect	88	13.1			
[N]=O [inhaled nitric oxide, nitric oxide]						treatment of venous gas embolism [3]: impossible to treat
O=C[C@H](O)[C@@H](O)[C@@H](O)[C@H](O)CO [Galactose (60%), Galactose]						Exhaled NO, Change (%) ([1]; rabbit, in vivo): 41%; Exhaled NO, Change (absolute value) ([1]; rabbit, in vivo): 3.3 ppb; effect as NO carrier / NO delivering capacity (words) ([1]; rabbit, in vivo): noticeable effect
C[C@H](N)C(=O)O [Alanine]		0	0			
OC[C@H]1O[C@@](CO)(O[C@H]2O[C@H](CO)[C@@H](O)[C@H](O)[C@H]2O)[C@@H](O)[C@@H]1O [Sucrose (60%), Sucrose]	noticeable effect	75	11.2			
OCCCO [1,3-Propanediol]	noticeable effect; also recorded: exhibited NO delivering capacity	562	78.2	−33	−38.2	
CC(O)CO (stereo not drawn) [1,2-Propanediol]	noticeable effect; also recorded: exhibited NO delivering capacity	217	27.9	−16	−14.7	
CCO [Etanol]		0	0	0	0	
O=C[C@H](O)[C@@H](O)[C@H](O)[C@H](O)C(=O)O [Glucuronic acid]		0	0			
NC(CO)CO [2-Amino-1,3-propanediol]		14	2.4			
OCC(O)CO [Glycerol]	act as a selective NO carrier	475 ± 120	63.3 ± 10.5			effect as NO carrier / NO delivering capacity (words) ([1]; compared to the saline control, listed as glycerol): noticeable effect
Inulin [Inulin (15%)]	noticeable effect	12	1.8	−31	−26.5	
PEG 400	positive results					
C[C@H](O)[C@@H](O)[C@@H](O)[C@H](O)C=O [Fucose]	noticeable effect	22	4.1			
Dextran [Dextran (15%)]	noticeable effect; also recorded: positive results	24	2.8	−34	−45.5	
OC[C@@H](O)[C@@H](O)[C@H](O)[C@@H](O)CO [Sorbitol (60%), Sorbitol]	noticeable effect	60	4.2			
COC(=O)[C@@H](N)CCCNC(=N)N[N+](=O)[O-] [L-NAME, N^G-nitro-L-arginine methyl ester]						End-tidal CO2 and the relevant blood gas parameters [4]: normal; exhaled nitric oxide after L-NAME infusion [4]: < 1 ppb; heart rate (HR) after L-NAME infusion [4]: 258 beats min^−1; systemic mean arterial blood pressure (MAP) after L-NAME infusion [4]: 128 cmHaO
